Values after ≈ are worked out from the molar mass of the structure shown. Values joined by “and” are separate entries in the source; they are usually repeats but may differ in a detail not shown here. Equal entries are not always repeated. Where two headings read alike, the source gives them in different places.
Key:
S. epidermidis = assay: MIC, CLSI M7-A7, Mueller-Hinton; format: cell-based; conditions: for MIC: read-out: MIC
Protocol: (§1) Minimum Inhibitory Concentration (MIC): Minimum inhibitory concentrations of synthetic and semisynthetic and natural products against dermatophytes were determined using a modification of the Clinical Laboratory Standards Institute (CLSI, formerly National Committee of Clinical Laboratory Standards, NCCLS) M38A standard method for dermatophytes, while MIC of these agents against Candida species were determined using the CLSI M27-A2 methodology. The method used to determine the MIC against bacteria was based on the CLSI document M7-A7.
(§2) For bacterial species, the medium used to evaluate the antibacterial activity of agents and essential oils was Mueller-Hinton (Oxoid Ltd., Basingstoke, Hampshire, England). Serial dilutions of miconazole, terbinafine, and tolnaftate were prepared in a range of 0.125-64 μg/ml and serial dilutions of tea tree oil were prepared in a range of 0.0078-4 μg/ml, while those for the rest of the essential oils were prepared in a range 0.031-16 μg/ml.

C. albicans = assay: MIC, CLSI M27-A2; format: cell-based, Candida albicans
Protocol: as §1
(§3) The remaining essential oils were prepared in a dilution range of 0.03-16 μg/ml. For Candida the MIC was read at 24 hours and defined as the lowest concentration to inhibit 50% of fungal growth as compared to the growth control (Table 4).

All yeasts = assay: MIC, CLSI M27-A2, pooled yeasts; format: cell-based, C. albicans, C. parapsilosis; conditions: n = 12
Protocol: as §1, §3
(§4) In the following Tables, MIC50 and MIC90 are defined as the minimal concentrations of a compound that can inhibit 50% and 90% of the tested organisms, respectively.

All dermatophytes [1] = assay: Minimum fungicidal concentration, pooled dermatophytes; format: cell-based, E. floccosum, T. rubrum, T. mentagrophytes; conditions: All dermatophytes, n = 18
Protocol: (§5) Minimum fungicidal concentration (MFC): The minimum fungicidal concentrations of various agents were determined using the technique described by Canton et al. (Antimicrob Agents Chemother. 2004 8:2477-82). In that method, fungal conidia were collected following growth on potato dextrose agar (PDA) plates and were used to inoculate 96-well plates containing different concentrations of agents. Following incubation at 35° C. for 4 days (for dermatophytes) or 24 hours (for yeast), wells showing no visible growth were cultured to determine the MFC (defined as the lowest concentration of a given agent that kills>99.999% of fungal conidia or spores). The MFC value represents the level of the agent at which spores or conidia were killed.
as §4

[2] = system: All bacteria (Staphylococcus species); assay: MIC, CLSI M7-A7, pooled bacteria; format: cell-based, S. aureus, S. epidermidis
Protocol: as §1, §2, §4

E. floccosum [3] = assay: Minimum fungicidal concentration (Canton et al.); format: cell-based, Epidermophyton floccosum; conditions: for MFC: Epidermophyton floccosum
Protocol: as §5

E. floccosum [4] = assay: MIC, modified CLSI M38A broth dilution; format: cell-based, Epidermophyton floccosum
Protocol: as §1
(§6) For dermatophytes, serial dilutions of terbinafine, tolnaftate were prepared in a range of 0.004-2 μg/ml, while for miconazole concentrations ranged between 0.015-8 μg/ml. Finally, for essential oils, the concentrations tested were between 0.03-16 μg/ml. The only exception was tea tree oil where dilutions were prepared in a range of 0.0078-4 μg/ml. The MIC was read at 4 days post inoculation and defined as the lowest concentration of an agent to inhibit 80% of fungal growth as compared to the growth control (Table 2).

T. mentagrophytes = assay: MIC, modified CLSI M38A broth dilution; format: cell-based, Trichophyton mentagrophytes
Protocol: as §1, §6

T. rubrum = assay: MIC, modified CLSI M38A broth dilution; format: cell-based, Trichophyton rubrum
Protocol: as §1, §6

S. aureus = assay: MIC, CLSI M7-A7, Mueller-Hinton; format: cell-based, Staphylococcus aureus
Protocol: as §1, §2

All dermatophytes [5] = assay: MIC, modified CLSI M38A, pooled dermatophytes; format: cell-based, E. floccosum, T. rubrum, T. mentagrophytes
Protocol: as §1, §6, §4

C. parapsilosis = assay: MIC, CLSI M27-A2; format: cell-based, Candida parapsilosis
Protocol: as §1, §3

[6] = Staphylococcus epidermidis, S. epidermidis, n = 6
[7] = Candida albicans, C. albicans, n = 6
[8] = Epidermophyton floccosum, E. floccosum, n = 6
[9] = Trichophyton mentagrophytes, T. mentagrophytes, n = 6
[10] = Trichophyton rubrum, T. rubrum, n = 6
[11] = Staphylococcus aureus, S. aureus
[12] = Lodderomyces parapsilosis, C. parapsilosis, n = 6

Structure (SMILES): CN(C/C=C/C#CC(C)(C)C)Cc1cccc2ccccc12 [Terbinafine, terbinafine]
- MIC Range (S. epidermidis; S. epidermidis, n = 6): >64 µg/mL
- MIC (S. epidermidis; Staphylococcus epidermidis, S. epidermidis strain 8472): > 64 µg/mL
- MIC (S. epidermidis; Staphylococcus epidermidis, S. epidermidis strain 8473): > 64 µg/mL
- MIC (S. epidermidis; Staphylococcus epidermidis, S. epidermidis strain 8474): > 64 µg/mL
- MIC (S. epidermidis; Staphylococcus epidermidis, S. epidermidis strain 8475): > 64 µg/mL
- MIC (S. epidermidis; Staphylococcus epidermidis, S. epidermidis strain 8476): > 64 µg/mL
- MIC (S. epidermidis; Staphylococcus epidermidis, S. epidermidis strain 8477): > 64 µg/mL
- MIC50 (S. epidermidis; [6]): > 64 µg/mL
- MIC90 (S. epidermidis; [6]): > 64 µg/mL
- MIC (C. albicans; C. albicans strain 8280 (multi-resistant)): >64 µg/mL
- MIC (C. albicans; Candida albicans, 24 h, C. albicans strain 1740, 50% inhibition, 24 hours, read-out: MIC): 1 µg/mL (≈ 3.43 µM)
- MIC (C. albicans; Candida albicans, C. albicans strain 2108, read-out: MIC): 0.5 µg/mL (≈ 1.72 µM)
- MIC (C. albicans; Candida albicans, C. albicans strain 2153, read-out: MIC): 0.5 µg/mL (≈ 1.72 µM)
- MIC (C. albicans; Candida albicans, C. albicans strain 8280 (multi-resistant), read-out: MIC): ≥ 64 µg/mL
- MIC (C. albicans; Candida albicans, C. albicans strain 8283, read-out: MIC): 0.5 µg/mL (≈ 1.72 µM)
- MIC (C. albicans; Candida albicans, C. albicans strain 8364, read-out: MIC): 2 µg/mL (≈ 6.86 µM)
- MIC (C. albicans; Candida albicans, C. albicans, 5 strains, read-out: MIC values): 0.5 to 2 µg/mL (≈ 1.72 to 6.86 µM)
- MIC50 (C. albicans; [7]): 0.5 µg/mL (≈ 1.72 µM)
- MIC90 (C. albicans; [7]): 2 µg/mL (≈ 6.86 µM)
- MIC50 (All yeasts): 0.25 µg/mL (≈ 0.858 µM)
- MIC90 (All yeasts): 2 µg/mL (≈ 6.86 µM)
- MFC Range (All dermatophytes [1]): 0.03 to 0.125 µg/mL
- MFC (All dermatophytes [1]; read-out: MFC, row MIC50): 0.06 µg/mL (≈ 0.206 µM)
- MFC (All dermatophytes [1]; read-out: MFC, row MIC90): 0.125 µg/mL (≈ 0.429 µM)
- MIC50 ([2]; Staphylococcus, n = 12): > 64 µg/mL
- MIC90 ([2]; Staphylococcus, n = 12): > 64 µg/mL
- MIC Range ([2]; n = 12): >64 µg/mL
- MIC Range ([2]; n = 12, listed as TERBINAFINE): >64 µg/mL
- MIC Range ([2]; n = 12, listed as terbinafine): > 64 µg/mL
- MFC range (row MIC Range) (E. floccosum [3]; E. floccosum, n = 6): 0.03 to 0.125 µg/mL
- MFC (E. floccosum [3]; E. floccosum strain 1666, read-out: MFC): 0.06 µg/mL (≈ 0.206 µM)
- MFC (E. floccosum [3]; E. floccosum strain 1798, read-out: MFC): 0.03 µg/mL (≈ 0.103 µM)
- MFC (E. floccosum [3]; E. floccosum strain 1925, read-out: MFC): 0.06 µg/mL (≈ 0.206 µM)
- MFC (E. floccosum [3]; E. floccosum strain 1926, read-out: MFC): 0.06 µg/mL (≈ 0.206 µM)
- MFC (E. floccosum [3]; E. floccosum strain 1961, read-out: MFC): 0.125 µg/mL (≈ 0.429 µM)
- MFC (E. floccosum [3]; E. floccosum strain 2165, read-out: MFC): 0.125 µg/mL (≈ 0.429 µM)
- MFC (E. floccosum [3]; E. floccosum, n = 6, read-out: MFC, row MIC50): 0.06 µg/mL (≈ 0.206 µM)
- MFC (E. floccosum [3]; E. floccosum, n = 6, read-out: MFC, row MIC90): 0.125 µg/mL (≈ 0.429 µM)
- MIC Range (E. floccosum [4]; E. floccosum, n = 6): 0.03 to 0.06 µg/mL
- MIC (E. floccosum [4]; Epidermophyton floccosum, E. floccosum strain 1666): 0.06 µg/mL (≈ 0.206 µM)
- MIC (E. floccosum [4]; Epidermophyton floccosum, E. floccosum strain 1798): 0.03 µg/mL (≈ 0.103 µM)
- MIC (E. floccosum [4]; Epidermophyton floccosum, E. floccosum strain 1925): 0.03 µg/mL (≈ 0.103 µM)
- MIC (E. floccosum [4]; Epidermophyton floccosum, E. floccosum strain 1926): 0.06 µg/mL (≈ 0.206 µM)
- MIC (E. floccosum [4]; Epidermophyton floccosum, E. floccosum strain 1961): 0.06 µg/mL (≈ 0.206 µM)
- MIC (E. floccosum [4]; Epidermophyton floccosum, E. floccosum strain 2165): 0.06 µg/mL (≈ 0.206 µM)
- MIC50 (E. floccosum [4]; [8]): 0.06 µg/mL (≈ 0.206 µM)
- MIC90 (E. floccosum [4]; [8]): 0.06 µg/mL (≈ 0.206 µM)
- MIC Range (T. mentagrophytes; T. mentagrophytes, n = 6): 0.004 to 0.03 µg/mL
- MIC (T. mentagrophytes; Trichophyton mentagrophytes, T. mentagrophytes strain 1720): 0.004 µg/mL (≈ 0.0137 µM)
- MIC (T. mentagrophytes; Trichophyton mentagrophytes, T. mentagrophytes strain 2124): 0.03 µg/mL (≈ 0.103 µM)
- MIC (T. mentagrophytes; Trichophyton mentagrophytes, T. mentagrophytes strain 2125): 0.03 µg/mL (≈ 0.103 µM)
- MIC (T. mentagrophytes; Trichophyton mentagrophytes, T. mentagrophytes strain 2126): 0.004 µg/mL (≈ 0.0137 µM)
- MIC (T. mentagrophytes; Trichophyton mentagrophytes, T. mentagrophytes strain 2127): 0.03 µg/mL (≈ 0.103 µM)
- MIC (T. mentagrophytes; Trichophyton mentagrophytes, T. mentagrophytes strain 2128): 0.03 µg/mL (≈ 0.103 µM)
- MIC50 (T. mentagrophytes; [9]): 0.03 µg/mL (≈ 0.103 µM)
- MIC90 (T. mentagrophytes; [9]): 0.03 µg/mL (≈ 0.103 µM)
- MIC Range (T. rubrum; T. rubrum, n = 6): 0.008 to 0.015 µg/mL
- MIC (T. rubrum; Trichophyton rubrum, T. rubrum strain 1967): 0.015 µg/mL (≈ 0.0515 µM)
- MIC (T. rubrum; Trichophyton rubrum, T. rubrum strain 2098): 0.015 µg/mL (≈ 0.0515 µM)
- MIC (T. rubrum; Trichophyton rubrum, T. rubrum strain 2246): 0.008 µg/mL (≈ 0.0275 µM)
- MIC (T. rubrum; Trichophyton rubrum, T. rubrum strain 8063): 0.015 µg/mL (≈ 0.0515 µM)
- MIC (T. rubrum; Trichophyton rubrum, T. rubrum strain 8071): 0.015 µg/mL (≈ 0.0515 µM)
- MIC (T. rubrum; Trichophyton rubrum, T. rubrum strain 8092): 0.015 µg/mL (≈ 0.0515 µM)
- MIC50 (T. rubrum; [10]): 0.015 µg/mL (≈ 0.0515 µM)
- MIC90 (T. rubrum; [10]): 0.015 µg/mL (≈ 0.0515 µM)
- MIC (S. aureus; S. aureus strain 733): >64 µg/mL
- MIC (S. aureus; S. aureus strain 734): >64 µg/mL
- MIC (S. aureus; S. aureus strain 8470): >64 µg/mL
- MIC Range (S. aureus; S. aureus, n = 6): >64 µg/mL
- MIC50 (S. aureus; [11]): > 64 µg/mL
- MIC90 (S. aureus; [11]): > 64 µg/mL
- MIC (S. aureus; Staphylococcus aureus, S. aureus strain 730, 80% inhibition, 16 h, read-out: MIC): > 64 µg/mL
- MIC (S. aureus; Staphylococcus aureus, S. aureus strain 732, read-out: MIC): > 64 µg/mL
- MIC50 (All dermatophytes [5]; n = 18): 0.03 µg/mL (≈ 0.103 µM)
- MIC90 (All dermatophytes [5]; n = 18): 0.06 µg/mL (≈ 0.206 µM)
- MIC Range (All dermatophytes [5]; n = 18): 0.015 µg/mL and 0.008 to 0.015 µg/mL
- MIC Range (All dermatophytes [5]; n = 18, listed as terbinafine): 0.008 to 0.06 µg/mL
- MIC Range (C. parapsilosis; C. parapsilosis, n = 6): 0.25-0.25 μg/mL
- MIC Range (C. parapsilosis; C. parapsilosis, n = 6, listed as terbinafine): 0.25 µg/mL (≈ 0.858 µM)
- MIC (C. parapsilosis; Lodderomyces parapsilosis, C. parapsilosis strain 7629): 0.25 µg/mL (≈ 0.858 µM)
- MIC (C. parapsilosis; Lodderomyces parapsilosis, C. parapsilosis strain 7668): 0.25 µg/mL (≈ 0.858 µM)
- MIC (C. parapsilosis; Lodderomyces parapsilosis, C. parapsilosis strain 7672): 0.25 µg/mL (≈ 0.858 µM)
- MIC (C. parapsilosis; Lodderomyces parapsilosis, C. parapsilosis strain 7995): 0.25 µg/mL (≈ 0.858 µM)
- MIC (C. parapsilosis; Lodderomyces parapsilosis, C. parapsilosis strain 8148): 0.25 µg/mL (≈ 0.858 µM)
- MIC (C. parapsilosis; Lodderomyces parapsilosis, C. parapsilosis strain 8442): 0.25 µg/mL (≈ 0.858 µM)
- MIC50 (C. parapsilosis; [12]): 0.25 µg/mL (≈ 0.858 µM)
- MIC90 (C. parapsilosis; [12]): 0.25 µg/mL (≈ 0.858 µM)

Source: patent publication US20080220103A1, “METHOD FOR TREATING/CONTROLLING/KILLING FUNGI AND BACTERIA ON LIVING ANIMALS” (priority 2005, published 2008)
